We go through eleven compounds from patent publication US10266497B2 (ABIDE THERAPEUTICS, INC., priority 2017, dated 2019).

Test [1] deals with T1, MAGL (Mus musculus, UniProt O35678).
T1 sequence (O35678 1-303): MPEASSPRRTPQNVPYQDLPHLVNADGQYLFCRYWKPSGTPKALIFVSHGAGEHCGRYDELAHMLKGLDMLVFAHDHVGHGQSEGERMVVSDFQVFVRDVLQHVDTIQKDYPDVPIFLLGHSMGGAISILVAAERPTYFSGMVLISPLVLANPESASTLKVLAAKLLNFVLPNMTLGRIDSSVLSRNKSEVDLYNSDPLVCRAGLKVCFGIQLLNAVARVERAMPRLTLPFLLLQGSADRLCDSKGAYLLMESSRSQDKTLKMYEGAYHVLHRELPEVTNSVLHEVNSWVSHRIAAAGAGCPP
Description: In vitro competitive activity-based protein profiling, MAGL, mouse. Particulars: read-out: MAGL % inh. 1 μM (mouse).

Test [2] addresses T1, MAGL. Description: Mouse brain proteomes from inhibitor treated mice (oral gavage, sacrificed 4 h after administration). It is filed as in vivo. The note with it: 5 mg/kg oral gavage, brain proteome 4 h after administration, read-out: MAGL % inh. 5 mg/kg (mouse). Also on record: mouse brain membrane fraction for mouse assays; from tissue; host or cells: mouse brain (membrane fraction in vitro; brain proteomes of treated C57Bl/6J mice in vivo).

Test [3] has as its target T2, FAAH (Mus musculus, UniProt O08914).
T2 sequence (O08914 1-579): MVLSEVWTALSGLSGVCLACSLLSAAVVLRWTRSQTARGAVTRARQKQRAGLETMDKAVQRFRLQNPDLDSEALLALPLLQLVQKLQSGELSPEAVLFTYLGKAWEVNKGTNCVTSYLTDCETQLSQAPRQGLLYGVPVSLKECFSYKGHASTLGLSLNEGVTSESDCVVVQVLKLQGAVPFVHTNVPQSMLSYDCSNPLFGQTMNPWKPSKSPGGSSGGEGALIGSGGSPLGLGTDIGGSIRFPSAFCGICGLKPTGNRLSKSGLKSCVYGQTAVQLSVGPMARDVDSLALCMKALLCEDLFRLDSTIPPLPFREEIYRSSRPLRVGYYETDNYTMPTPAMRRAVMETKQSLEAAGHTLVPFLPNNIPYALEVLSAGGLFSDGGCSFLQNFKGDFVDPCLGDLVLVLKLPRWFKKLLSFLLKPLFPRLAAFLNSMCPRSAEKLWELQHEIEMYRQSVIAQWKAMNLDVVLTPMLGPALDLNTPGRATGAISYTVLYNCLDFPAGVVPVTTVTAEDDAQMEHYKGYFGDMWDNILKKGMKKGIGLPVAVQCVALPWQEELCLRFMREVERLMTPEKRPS
Description: In vitro competitive activity-based protein profiling, FAAH, mouse. Particulars: read-out: FAAH % inh. 1 μM (mouse).

The target of test [4] is T2, FAAH. Description: Mouse brain proteomes from inhibitor treated mice (oral gavage, sacrificed 4 h after administration), FAAH. In kind it is in vivo. Also on record: mouse brain membrane fraction for mouse assays; from tissue; host or cells: mouse brain (membrane fraction in vitro; brain proteomes of treated C57Bl/6J mice in vivo). Particulars: 5 mg/kg oral gavage, brain proteome 4 h after administration, read-out: FAAH % inh. 5 mg/kg (mouse).

For test [5], the target named is T3, FAAH (Homo sapiens, UniProt O00519).
T3 sequence (O00519 1-579): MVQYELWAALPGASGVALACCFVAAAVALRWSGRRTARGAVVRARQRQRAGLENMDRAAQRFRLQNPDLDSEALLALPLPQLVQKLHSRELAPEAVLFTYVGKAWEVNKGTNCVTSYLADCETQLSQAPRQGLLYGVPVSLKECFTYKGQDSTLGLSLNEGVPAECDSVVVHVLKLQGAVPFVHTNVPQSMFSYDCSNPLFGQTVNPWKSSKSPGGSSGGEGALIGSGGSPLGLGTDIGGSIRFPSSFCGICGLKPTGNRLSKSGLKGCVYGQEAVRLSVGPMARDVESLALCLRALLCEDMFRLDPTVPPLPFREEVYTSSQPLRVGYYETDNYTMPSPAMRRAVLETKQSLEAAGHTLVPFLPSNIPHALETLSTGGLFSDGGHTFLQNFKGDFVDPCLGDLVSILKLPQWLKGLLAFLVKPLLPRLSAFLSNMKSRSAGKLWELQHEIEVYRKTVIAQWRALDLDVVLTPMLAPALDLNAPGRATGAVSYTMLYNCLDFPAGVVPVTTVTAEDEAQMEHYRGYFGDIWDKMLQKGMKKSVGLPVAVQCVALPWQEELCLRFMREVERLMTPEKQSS
Briefly: In vitro competitive activity-based protein profiling, FAAH, human. The note with it: for inhibition at 1 µM: read-out: FAAH % inh. 1 μM (human).

Test [6] concerns the target T4, MAGL (Homo sapiens, UniProt Q99685).
T4 sequence (Q99685 1-303): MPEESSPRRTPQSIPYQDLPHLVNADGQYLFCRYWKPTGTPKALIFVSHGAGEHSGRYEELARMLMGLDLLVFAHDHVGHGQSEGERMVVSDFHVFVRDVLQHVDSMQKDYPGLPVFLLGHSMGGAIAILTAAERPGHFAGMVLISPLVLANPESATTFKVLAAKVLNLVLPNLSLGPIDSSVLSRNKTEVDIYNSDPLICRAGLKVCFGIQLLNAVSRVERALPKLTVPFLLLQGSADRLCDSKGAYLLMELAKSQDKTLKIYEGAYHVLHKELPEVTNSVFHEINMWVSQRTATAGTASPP
Description: In vitro competitive activity-based protein profiling, MAGL, human. The note with it: read-out: MAGL % inh. 1 μM (human).

By IC50 is commonly meant the midpoint of a concentration-inhibition curve. A low value points to higher potency.

As for `O=C(O)c1ccn(C(=O)N2CCN(Cc3ccc(C(F)(F)F)cc3N3CCCC3)CC2)n1` [Example 83, 1-(4-(2-(pyrrolidin-1-yl)-4-(trifluoromethyl)benzyl)piperazine-1-carbonyl)-1H-pyrazole-3-carboxylic acid], the inhibition at 1 µM is over 75% on MAGL [1], 0 to 25% at FAAH [3], 0 to 25% at FAAH [5] and over 75% on MAGL [6]. Also, the inhibition at 5 mg/kg on MAGL [2] and at FAAH [4] was 0 to 25% in each case. The compound also returned an IC50 on FAAH [5] of 1 to 10 µM.
For the compound `O=C(O)c1ccn(C(=O)N2CCN(Cc3ccc(C(F)(F)F)cc3Cl)CC2)n1` [Example 91, 1-(4-(2-chloro-4-(trifluoromethyl)benzyl)piperazine-1-carbonyl)-1H-pyrazole-3-carboxylic acid], the inhibition at 1 µM was over 75% on MAGL [1], 0 to 25% on FAAH [3], 0 to 25% at FAAH [5] and over 75% on MAGL [6]. Further, the inhibition at 5 mg/kg on MAGL [2] and on FAAH [4] was 0 to 25% throughout.
Regarding `COC1CCN(c2cc(C(F)(F)F)ccc2CN2CCN(C(=O)n3ccc(C(=O)O)n3)CC2)CC1` [Example 12, 1-(4-(2-(4-Methoxypiperidin-1-yl)-4-(trifluoromethyl)benzyl)piperazine-1-carbonyl)-1H-pyrazole-3-carboxylic Acid], the inhibition at 1 µM on MAGL [1] is over 75%; at FAAH [3] it was 0 to 25%; on FAAH [5], 0 to 25%; on MAGL [6], over 75%. In addition, the inhibition at 5 mg/kg on MAGL [2] and at FAAH [4] was 0 to 25% each time.
With `O=C(O)c1ccn(C(=O)N2CCC(Oc3ccc(Cl)cc3N3CCCC3)CC2)n1` [Example 11, 1-(4-(4-Chloro-2-(pyrrolidin-1-yl)phenoxy)piperidine-1-carbonyl)-1H-pyrazole-3-carboxylic Acid], the inhibition at 1 µM on MAGL [1] was over 75%; at FAAH [3] it was 0 to 25%; on FAAH [5] it was 0 to 25%; on MAGL [6], over 75%. Further, the inhibition at 5 mg/kg on MAGL [2] and on FAAH [4] was 0 to 25% in each case.
On to `CN(Cc1ccc(C(F)(F)F)cc1N1CCOCC1)C1(C)CCN(C(=O)n2ccc(C(=O)O)n2)CC1` [Example 4, 1-(4-Methyl-4-(methyl(2-morpholino-4-(trifluoromethyl)benzyl)amino)piperidine-1-carbonyl)-1H-pyrazole-3-carboxylic Acid], for which the inhibition at 1 µM was over 75% at MAGL [1], 0 to 25% at FAAH [3], 0 to 25% at FAAH [5] and over 75% on MAGL [6]. Moreover, the inhibition at 5 mg/kg on MAGL [2] and at FAAH [4] was 0 to 25% in each case.
`Cc1cn(C(=O)N2CCC3(CCN(Cc4cc(Cl)ccc4C(F)(F)F)C3)CC2)nc1C(=O)O` [Example 130, 1-(2-(5-chloro-2-(trifluoromethyl)benzyl)-2,8-diazaspiro[4.5]decane-8-carbonyl)-4-methyl-1H-pyrazole-3-carboxylic acid]: the inhibition at 1 µM is over 75% on MAGL [1], 50 to 75% at FAAH [3], 50 to 75% on FAAH [5] and over 75% on MAGL [6]. Moreover, the inhibition at 5 mg/kg on MAGL [2] and at FAAH [4] was 0 to 25% each time. In addition, the half-inhibitory concentration (IC50) at FAAH [5] fell in the range of 0.1 to 1 µM.
Take `CC1CCC(C)N1c1cc(C(F)(F)F)ccc1CN1CCN(C(=O)n2ccc(C(=O)O)n2)CC1` (stereo not drawn) [Example 114, 1-(4-(2-(2,5-dimethylpyrrolidin-1-yl)-4-(trifluoromethyl)benzyl)piperazine-1-carbonyl)-1H-pyrazole-3-carboxylic acid]: the inhibition at 1 µM on MAGL [1] is over 75%; at FAAH [3] it was 0 to 25%; on FAAH [5] it was 0 to 25%; on MAGL [6], over 75%. Moreover, the inhibition at 5 mg/kg on MAGL [2] and at FAAH [4] was 0 to 25% throughout.
As to `O=C(O)c1ccn(C(=O)N2CCC(Oc3ccc(Cl)c(N4CCCC4)c3)CC2)n1` [Example 121, 1-(4-(4-chloro-3-(pyrrolidin-1-yl)phenoxy)piperidine-1-carbonyl)-1H-pyrazole-3-carboxylic acid], the inhibition at 1 µM at MAGL [1] is over 75%; on FAAH [3] it was 0 to 25%; at FAAH [5], 0 to 25%; on MAGL [6] it was over 75%. Moreover, the inhibition at 5 mg/kg at MAGL [2] and on FAAH [4] was 0 to 25% each time.
As to `O=C(O)c1ccn(C(=O)N2CCC3(CCCN3Cc3ccc(C(F)(F)F)cc3N3CCCC3)CC2)n1` [Example 93, 1-(1-(2-(pyrrolidin-1-yl)-4-(trifluoromethyl)benzyl)-1,8-diazaspiro[4.5]decane-8-carbonyl)-1H-pyrazole-3-carboxylic acid], the inhibition at 1 µM is over 75% at MAGL [1], 0 to 25% on FAAH [3], 0 to 25% at FAAH [5] and over 75% at MAGL [6]. In addition, the inhibition at 5 mg/kg on MAGL [2] and at FAAH [4] was 0 to 25% throughout. The IC50 on FAAH [5] lay within 1 to 10 µM.
Regarding `O=C(O)c1ccn(C(=O)N2CCN(Cc3cccc(Cl)c3N3CC4COCC4C3)CC2)n1` (stereo not drawn) [Example 211, 1-(4-(3-chloro-2-(tetrahydro-1H-furo[3,4-c]pyrrol-5(3H)-yl)benzyl)piperazine-1-carbonyl)-1H-pyrazole-3-carboxylic acid], the inhibition at 1 µM at MAGL [1] was over 75%; on FAAH [3] it was 0 to 25%; on FAAH [5], 0 to 25%; on MAGL [6], over 75%. Moreover, the inhibition at 5 mg/kg on MAGL [2] and at FAAH [4] was 0 to 25% in each case.
In the case of `CC(C)(O)C1CCN(c2cc(C(F)(F)F)ccc2CN2CCN(C(=O)n3ccc(C(=O)O)n3)CC2)CC1` [Example 109, 1-(4-(2-(4-(2-hydroxypropan-2-yl)piperidin-1-yl)-4-(trifluoromethyl)benzyl)piperazine-1-carbonyl)-1H-pyrazole-3-carboxylic acid], the inhibition at 1 µM is over 75% on MAGL [1], 0 to 25% at FAAH [3], 0 to 25% at FAAH [5] and over 75% at MAGL [6]. Further, the inhibition at 5 mg/kg at MAGL [2] and at FAAH [4] was 0 to 25% throughout.
